Patent publication US20240010726A1, “LFA-1 SIGNALLING MEDIATOR FOR USE IN CANCER THERAPY” (Universität Basel, priority 2020, published 2024)

What was measured:
human EM CD8 T cells = test: Flow cytometry of surface activation markers on EM CD8 T cells; assay type: cell-based; conditions: 24 h plate-bound anti-CD3 and soluble anti-CD28 Ab; 0 mM vs 1.2 mM Mg^2+
Procedure: FIG. 2: Extracellular magnesium promotes memory-specific activation via LFA-1. Glycolytic switch of human EM CD8 T cells (a) and naïve CD8 T cells (b) subsets upon injection of anti-CD3 Ab only, or anti-CD3 and anti-CD28 Ab, was assessed by metabolic flux analysis in medium containing either 1.2 mM Mg^2+, 0 mM Mg^2+, or medium which was reconstituted from 0 mM to 1.2 mM Mg^2+ immediately prior to activation (0→1.2 mM Mg^2+). (a) Results for human effector memory (EM) and (b) for human naïve CD8 T cells. Glycolytic switch was quantified by subtracting […] measurements. (c) Flow cytometric analysis of surface activation markers on human EM CD8 T cells 24 hours after activation by plate-bound anti-CD3 Ab and soluble anti-CD28 Ab, in 1.2 mM and 0 mM Mg^2+ media, respectively. (d) Abundance of inflammatory cytokines in corresponding EM CD8 T cell culture supernatants, determined by CBA. (e) CD11a (LFA-1) surface expression on human naïve and EM CD8 T cells as well PHA T cell blasts. Flow cytometry-based assessment of total LFA-1 expression assessed by mAb TS2/4 (f), closed conformation of αL by mAb HI111 (g), extended conformation of LFA-1 by mAb Kim127 (h), open head-piece conformation of LFA-1 by mAb m24 (i), phosphorylation of focal adhesion kinase (FAK) […] as well TNF expression (k)±TCR-induced activation in different extracellular Mg^2+ concentrations. (l) Flow cytometry-based assessment of LFA-1 with open-head piece conformation on human EM and naïve CD8 T cells using the open head-piece reporter mAb m24. (m) Assessment of glycolytic switch of EM CD8 T cells. (n) Assessment of glycolytic switch of naïve CD8 T cells. […] Naïve CD8 T cells were activated with in house generated anti-CD3/anti-CD28 coated microbeads. Polybead microspheres ([…], Polyscience […]) were incubated with 1 μg anti-CD3 Ab and 10 μg anti-CD28 Ab. […] Primary human T cells were activated for 24 h and PHA-blasts for 4 h. For analysis of surface markers, T cells were harvested at indicated time points, washed once in cold PBS and, if required, stained with Fixable Viability Dyes for 15 min at 4° C. Surface markers were stained with appropriate antibodies for 20 min at 4° C.

REP T cells = test: FAK phosphorylation and CD107a degranulation of REP T cells co-incubated with T2 target cells; assay type: cell-based, human; conditions: pulsed T2 target cells; presence vs absence of extracellular Mg^2+
Procedure: FIG. 3: Magnesium regulates LFA-1 mediated T cell activation and cytotoxicity as well BiTE- and CAR T-cell functionality. (a) Glycolytic switch of murine WT and LFA-1^−/− CTLs upon injection of anti-CD3/28 Ab in medium containing 1.2 mM Mg^2+ and 0 mM Mg^2+, presented as quantification of summarized data with n=4 mice. (b) Calcium flux in WT and LFA-1^−/− Jurkat T cells stimulated with anti-CD3 Ab in 1.2 mM and 0 mM Mg^2+ medium, respectively. Cells were loaded with Fluo4, and signal intensity as recorded by plate reader, was normalized to unstimulated baseline values. […] Quantified results of n=3 mice with 3 technical replicates each. (d) Caspase-3 activity in EL4 target cells after co-culture with murine WT and LFA-1^−/− CTLs under the conditions as in (c) for 4 hours, in presence of 10 μg/ml PHA. The effector to target cell ratio was 3:1. Results are quantified of n=3 mice with 3 technical replicates each. (e) Representative CD11a (LFA-1) surface expression on human naïve and EM CD8 T cells, PHA T cell blasts and REP T cells, assessed by flow cytometry. Flow cytometry-based assessment of inactivate LFA-1 with bent conformation (f), extended conformation with β2 leg extension (g), LFA-1 with open head-piece (h), phosphorylation of FAK, expression of degranulation marker CD107a (j) on REP T cells after co-incubation with T2 target cells (pulsed with 10^−8 M 9c peptide) in same condition as in (c). The effector to target cell ratio was 1:1. Data is presented as quantified results of n=5 healthy donors (f, g, h), n=3 healthy donors with 2 technical replicates each or n=1 healthy donor with 4 technical replicates (j). […] Data is presented as quantified results of n=1 healthy donor with 4 technical replicates. […] Cytotoxicity is reported as total area under the curve of the fluorescence driven by incorporation of cytotoxic green reagent in dead target cells (green area per μm^2). […] (p) Abundance of IFNγ in cell culture supernatants corresponding to the conditions depicted in (o) at 24 hours was determined by ELISA (n=8, 3 independent experiments). […]

## [Mg+2] [Mg^2+, Magnesium]
Human EM CD8 T cells
  CD25 surface expression: failed to upregulate
  CD69 surface expression: failed to upregulate
  CD71 surface expression: failed to upregulate
  CD98 surface expression: failed to upregulate
  CD107a surface expression (degranulation): failed to upregulate
REP T cells
  Degranulation (CD107a) of REP T cells: significantly increased
  FAK phosphorylation in REP T cells: significantly increased
